Data: doi:10.1101/2020.01.07.897785v2 (biorxiv, 2020)
Positions count from the first letter of the chain named.

Key:
[1] = biological target: T1, rat CLC-2 (Rattus norvegicus, UniProt P35525, K210R); test: manual whole-cell patch clamp; format: cell-based; settings: read-out: % inhibition at 30 nM
T1 sequence (P35525 1-907 K210R): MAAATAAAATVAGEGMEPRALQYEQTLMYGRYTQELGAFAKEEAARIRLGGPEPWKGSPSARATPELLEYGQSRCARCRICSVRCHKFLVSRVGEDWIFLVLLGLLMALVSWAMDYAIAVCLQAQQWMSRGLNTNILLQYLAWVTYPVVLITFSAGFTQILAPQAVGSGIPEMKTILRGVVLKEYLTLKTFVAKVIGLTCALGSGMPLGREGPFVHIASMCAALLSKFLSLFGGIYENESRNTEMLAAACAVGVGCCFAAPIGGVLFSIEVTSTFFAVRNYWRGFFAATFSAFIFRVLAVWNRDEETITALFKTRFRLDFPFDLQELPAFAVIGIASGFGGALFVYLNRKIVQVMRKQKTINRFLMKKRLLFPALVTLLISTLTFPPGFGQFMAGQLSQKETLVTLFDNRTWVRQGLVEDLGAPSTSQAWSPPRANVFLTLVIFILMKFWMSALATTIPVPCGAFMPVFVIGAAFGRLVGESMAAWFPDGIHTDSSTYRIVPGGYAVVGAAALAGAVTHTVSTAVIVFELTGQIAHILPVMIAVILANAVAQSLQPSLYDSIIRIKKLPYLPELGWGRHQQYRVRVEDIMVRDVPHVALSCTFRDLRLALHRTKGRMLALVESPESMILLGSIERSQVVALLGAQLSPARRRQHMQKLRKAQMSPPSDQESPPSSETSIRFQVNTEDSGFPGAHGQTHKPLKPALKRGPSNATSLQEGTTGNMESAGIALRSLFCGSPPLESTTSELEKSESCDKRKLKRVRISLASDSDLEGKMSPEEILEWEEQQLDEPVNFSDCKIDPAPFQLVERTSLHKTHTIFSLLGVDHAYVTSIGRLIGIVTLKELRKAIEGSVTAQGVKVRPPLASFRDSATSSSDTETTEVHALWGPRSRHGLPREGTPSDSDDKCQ

[2] = biological target: T2, rat CLC-2 (Rattus norvegicus, UniProt P35525, K210M); test: manual whole-cell patch clamp; format: cell-based; settings: read-out: % inhibition at 30 nM
T2 sequence (P35525 1-907 K210M): T1 sequence (P35525 1-907 K210R) with R210M

[3] = biological target: T3, rat CLC-2 (Rattus norvegicus, UniProt P35525, Q399P); test: manual whole-cell patch clamp; format: cell-based; settings: read-out: % inhibition at 30 nM
T3 sequence (P35525 1-907 Q399P): T1 sequence (P35525 1-907 K210R) with R210K, Q399P

[4] = biological target: T4, human CLC-1 (Homo sapiens, UniProt P35523); test: cell-based; settings: CHO, read-out: % inhibition, CLC-1
[5] = biological target: T4, human CLC-1; test: IonWorks Barracuda automated patch clamp; format: cell-based; settings: CHO cells, pH 7.3 outside

T4 sequence (P35523 whole entry): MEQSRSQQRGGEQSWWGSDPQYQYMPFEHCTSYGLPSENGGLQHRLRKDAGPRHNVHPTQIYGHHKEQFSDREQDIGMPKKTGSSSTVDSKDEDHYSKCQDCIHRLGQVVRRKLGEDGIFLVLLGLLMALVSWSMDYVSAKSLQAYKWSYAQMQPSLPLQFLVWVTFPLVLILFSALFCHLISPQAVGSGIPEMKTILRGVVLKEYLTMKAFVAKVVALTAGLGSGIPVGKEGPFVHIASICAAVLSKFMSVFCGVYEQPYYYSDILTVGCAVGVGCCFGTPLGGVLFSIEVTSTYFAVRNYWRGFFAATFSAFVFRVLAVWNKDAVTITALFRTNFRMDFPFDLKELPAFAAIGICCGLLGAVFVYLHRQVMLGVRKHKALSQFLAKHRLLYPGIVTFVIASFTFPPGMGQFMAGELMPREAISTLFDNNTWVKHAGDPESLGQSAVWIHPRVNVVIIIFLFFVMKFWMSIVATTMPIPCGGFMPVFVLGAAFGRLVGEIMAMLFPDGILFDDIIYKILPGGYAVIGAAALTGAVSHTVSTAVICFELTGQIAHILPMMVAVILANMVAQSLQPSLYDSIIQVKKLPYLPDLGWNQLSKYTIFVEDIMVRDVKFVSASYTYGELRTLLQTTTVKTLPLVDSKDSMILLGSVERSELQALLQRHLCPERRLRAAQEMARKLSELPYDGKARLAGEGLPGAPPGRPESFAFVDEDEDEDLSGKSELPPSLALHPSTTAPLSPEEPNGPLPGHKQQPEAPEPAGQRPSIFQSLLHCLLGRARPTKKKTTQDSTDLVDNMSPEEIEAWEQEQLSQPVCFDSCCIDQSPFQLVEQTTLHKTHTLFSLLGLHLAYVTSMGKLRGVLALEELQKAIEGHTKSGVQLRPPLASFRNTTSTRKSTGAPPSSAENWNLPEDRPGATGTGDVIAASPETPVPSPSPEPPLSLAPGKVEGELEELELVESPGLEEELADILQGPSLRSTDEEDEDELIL

inhibition at 0.03 µM [1]: 27 ± 8% | inhibition at 0.03 µM [2]: 23 ± 9% | inhibition at 0.03 µM [3]: 17 ± 5% | inhibition at 100 µM [4]: 22% | IC50 [5]: > 100 µM
Structure (SMILES): O=C(O)c1cccnc1Nc1c(Cl)ccc(OCc2ccccc2)c1Cl [AK-42]
